# Publication PMC7725003, “Systematically Studying the Optimal Amino Acid Distribution Patterns of the Amphiphilic Structure by Using the Ultrashort Amphiphiles” (Frontiers in Microbiology, 2020)
# Where no end group is shown, it is not given here.
# What was measured:
# Gram-negative bacteria [1] = conditions: for GM MIC: geometric mean of MICs, 9 Gram-negative strains (Table 2); for TI, Gram-negative bacteria: therapeutic index TI = MHC/GM MIC
# Procedure, shortened: (§1)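 MIC is the lowest peptide concentration giving 95% growth inhibition, read at 492 nm after 24 h incubation at 37°C. Peptides were serially diluted in 0.2% BSA and added to mid-logarithmic cells at 0.5–1 × 10^6 CFU mL^–1 in MHB, following a modified NCCLS method, with more than 3 repeats.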
# Gram-positive bacteria [2] = conditions: for GM MIC: geometric mean of MICs, 7 Gram-positive strains (Table 2); for TI, Gram-positive bacteria: therapeutic index TI = MHC/GM MIC
# Procedure, shortened: as §1
# [3] = system: Listeria monocytogenes CGMCC 1.1075; format: cell-based; conditions: CGMCC 1.1075, 24 h
# Procedure, shortened: (§2)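 Broth microdilution in MHB with mid-log bacteria at 0.5–1 × 10^6 CFU/mL and peptides serially diluted in 0.2% BSA, 24 h at 37 °C. MIC is lowest concentration giving 95% growth inhibition by A492; MBC is lowest concentration killing >99.9% on overnight agar subculture.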
# Gram-positive bacteria [4] = conditions: geometric mean of MBCs, 7 Gram-positive strains (Table 2)
# E. coli UB1005 = format: cell-based, Escherichia coli; conditions: UB1005, 24 h
# Procedure, shortened: as §2
# E. coli O78 = format: cell-based, Escherichia coli; conditions: O78, 24 h
# Procedure, shortened: as §2
# E. coli 25922 = format: cell-based, Escherichia coli; conditions: 25922, 24 h
# Procedure, shortened: as §2
# S. aureus 29213 [5] = assay: Salt sensitivity assay (MIC); format: cell-based, Staphylococcus aureus; conditions: for MIC, FeCl3: 4 μM FeCl3; for MIC, NH4Cl: 6 μM NH4Cl; for MIC, ZnCl2: 8 μM ZnCl2; for MIC, MgCl2: 1 mM MgCl2; for MIC, CaCl2: 2 mM CaCl2; for MIC, KCl: 4.5 mM KCl; for MIC, NaCl: 150 mM NaCl
# Procedure, shortened: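 Physiological salts (150 mM NaCl, 4.5 mM KCl, 6 μM NH4Cl, 8 μM ZnCl2, 1 mM MgCl2, 2mM CaCl2, 4 μM FeCl3) added to MHB. Bacteria at 0.5–1 × 10^6 CFU/mL exposed to serially diluted peptides for 24 h at 37°C. MIC read as lowest peptide concentration giving 95% growth inhibition by absorbance at 492 nm.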
# MRSA 43300 = format: cell-based, methicillin-resistant S. aureus; conditions: 43300, 24 h
# Procedure, shortened: as §2
# E. faecalis 29212 = format: cell-based, Enterococcus faecalis; conditions: 29212, 24 h
# Procedure, shortened: as §2
# E. coli K99 = conditions: for MIC: MHB, 24 h 37°C, 95% growth inhibition
# Method: (§3) The antimicrobial activities of the peptides were measured using a method adapted from the National Committee for Clinical Laboratory Standards (NCCLS) with some modifications ([Chou et al., 2016]). The specific procedure for these assays has been previously described. In brief, the bacterial cells were grown to a mid-logarithmic phase and diluted in MHB to an ultimate concentration of 0.5–1 × 10^6 CFU mL^–1. Subsequently, the peptides were consecutively diluted in a 0.2% BSA solution and then added to a bacterial solution in a 96-well plate at identical volumes. After incubation for 24 h at 37°C, the MICs were determined to be the lowest peptide concentration that inhibited 95% of the bacterial growth by monitoring the absorbance at 492 nm using a microplate reader. Subsequently, 50 μL of each incubation mixture was further transferred to agar plates and incubated overnight. […] Every assay was reproduced more than 3 times.
# E. coli K88 = conditions: for MIC: MHB, 24 h 37°C, 95% growth inhibition
# Method: as §3
# S. aureus 29213 [6] = format: cell-based, Staphylococcus aureus; conditions: 29213, 24 h
# Procedure, shortened: as §2
# S. aureus 25923 = format: cell-based, Staphylococcus aureus; conditions: 25923, 24 h
# Procedure, shortened: as §2
# E. coli ATCC 25922 = assay: Salt sensitivity assay (MIC); format: cell-based, Escherichia coli; conditions: for MIC, FeCl3: 4 μM FeCl3; for MIC, NH4Cl: 6 μM NH4Cl; for MIC, ZnCl2: 8 μM ZnCl2; for MIC, MgCl2: 1 mM MgCl2; for MIC, CaCl2: 2 mM CaCl2; for MIC, KCl: 4.5 mM KCl; for MIC, NaCl: 150 mM NaCl; for MIC, Control: no added salt, three independent assays
# Procedure, shortened: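 Peptides diluted serially in 0.2% BSA solution were combined at identical volumes with mid-logarithmic E. coli ATCC 25922 in MHB (0.5–1 × 10^6 CFU mL^–1) in 96-well plates, with or without a physiological salt. Plates were incubated for 24 h at 37°C. MIC was the lowest concentration inhibiting 95% of growth, measured as absorbance at 492 nm on a microplate reader.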
# S. epidermidis 12228 = format: cell-based, Staphylococcus epidermidis; conditions: 12228, 24 h
# Procedure, shortened: as §2
# S. typhimurium 7731 = format: cell-based, Salmonella typhimurium; conditions: 7731, 24 h
# Procedure, shortened: as §2
# S. typhimurium 14028 = format: cell-based, Salmonella typhimurium; conditions: 14028, 24 h
# Procedure, shortened: as §2
# B. subtilis 63501 = format: cell-based, Bacillus subtilis; conditions: 63501, 24 h
# Procedure, shortened: as §2
# [7] = system: all of the tested bacterial strains; assay: Geometric mean of MICs, all tested bacterial strains; format: cell-based; conditions: for GM, All: geometric mean of MICs across all tested strains
# Procedure, shortened: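 Per strain, MIC came from absorbance at 492 nm after 24 h at 37°C (≥95% inhibition), using mid-log inoculum of 0.5–1 × 10^6 CFU mL^–1 in MHB and peptide diluted in 0.2% BSA. MBC (>99.9% killed) came from overnight agar plating, and values are geometric means across strains.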
# S. pullorum 7913 = format: cell-based, Salmonella pullorum; conditions: 7913, 24 h
# Procedure, shortened: as §2
# P. aeruginosa 27853 = format: cell-based, Pseudomonas aeruginosa; conditions: 27853, 24 h
# Procedure, shortened: as §2
# Gram-negative bacteria [8] = conditions: geometric mean of MBCs, 9 Gram-negative strains (Table 2)
# [9] = value in brackets, >99.9% of cells killed
substance,measurement,setting,value
LLLRRRRLL-NH2 [L4],"GM, Gram-negative bacteria",Gram-negative bacteria [1]; geometric mean of MICs (Table 3),128.00 µM
same,GM MIC,Gram-negative bacteria [1],128 µM
same,"TI, Gram-negative bacteria",Gram-negative bacteria [1],2.00
same,GM MIC,Gram-positive bacteria [2],86.14 µM
same,"TI, Gram-positive bacteria",Gram-positive bacteria [2],2.97
same,MIC,[3],>64 µM
same,GM MBC,Gram-positive bacteria [4],95.10 µM
same,MIC,E. coli UB1005,>64 µM
same,MIC,E. coli O78,>64 µM
same,MIC,E. coli 25922,> 64 µM
same,"MIC, FeCl3",S. aureus 29213 [5],> 64 µM
same,"MIC, NH4Cl",S. aureus 29213 [5],> 64 µM
same,"MIC, ZnCl2",S. aureus 29213 [5],> 64 µM
same,"MIC, MgCl2",S. aureus 29213 [5],> 64 µM
same,"MIC, CaCl2",S. aureus 29213 [5],> 64 µM
same,"MIC, KCl",S. aureus 29213 [5],> 64 µM
same,"MIC, NaCl",S. aureus 29213 [5],> 64 µM
same,"MIC, Control","S. aureus 29213 [5]; no added salt, three independent assays",> 64 µM
same,MIC,MRSA 43300,>64 µM
same,MIC,E. faecalis 29212,> 64 µM
same,MIC,E. coli K99,> 64 µM
same,MIC,E. coli K88,>64 µM
same,MIC,S. aureus 29213 [6],>64 µM
same,MIC,S. aureus 25923,> 64 µM
same,"MIC, FeCl3",E. coli ATCC 25922,> 64 µM
same,"MIC, NH4Cl",E. coli ATCC 25922,> 64 µM
same,"MIC, ZnCl2",E. coli ATCC 25922,> 64 µM
same,"MIC, MgCl2",E. coli ATCC 25922,> 64 µM
same,"MIC, CaCl2",E. coli ATCC 25922,> 64 µM
same,"MIC, KCl",E. coli ATCC 25922,> 64 µM
same,"MIC, NaCl",E. coli ATCC 25922,> 64 µM
same,"MIC, Control",E. coli ATCC 25922,> 64 µM
same,MIC,S. epidermidis 12228,> 64 µM
same,MIC,S. typhimurium 7731,> 64 µM
same,MIC,S. typhimurium 14028,> 64 µM
same,MBC,B. subtilis 63501,16 µM
same,MIC,B. subtilis 63501,8 µM
same,"GM, All",[7],107.63 µM
same,"TI, All",[7]; therapeutic index TI = MHC/GM MIC,2.38
same,MIC,S. pullorum 7913,>64 µM
same,MIC,P. aeruginosa 27853,> 64 µM
same,GM MBC,Gram-negative bacteria [8],128 µM
LLRLLRRRL-NH2 [L1],GM MIC,Gram-negative bacteria [1],13.72 µM
same,"TI, Gram-negative bacteria",Gram-negative bacteria [1],18.66
same,GM MIC,Gram-positive bacteria [2],21.53 µM
same,"TI, Gram-positive bacteria",Gram-positive bacteria [2],2.97
same,MIC,[3],> 64 µM
same,GM MBC,Gram-positive bacteria [4],39.01 µM
same,MBC,E. coli UB1005,32 µM
same,MIC,E. coli UB1005,16 µM
same,MBC,E. coli O78,16 µM
same,MIC,E. coli O78,8 µM
same,MBC,E. coli 25922,16 µM
same,MIC,E. coli 25922,8 µM
same,"MIC, FeCl3",S. aureus 29213 [5],> 64 µM
same,"MIC, NH4Cl",S. aureus 29213 [5],64 µM
same,"MIC, ZnCl2",S. aureus 29213 [5],64 µM
same,"MIC, MgCl2",S. aureus 29213 [5],64 µM
same,"MIC, CaCl2",S. aureus 29213 [5],> 64 µM
same,"MIC, KCl",S. aureus 29213 [5],64 µM
same,"MIC, NaCl",S. aureus 29213 [5],> 64 µM
same,MBC,MRSA 43300,32 µM
same,MIC,MRSA 43300,16 µM
same,MBC,E. faecalis 29212,128 µM
same,MIC,E. faecalis 29212,64 µM
same,MIC,E. coli K99,8 µM
same,MBC,E. coli K99; [9],16 µM
same,MIC,E. coli K88,8 µM
same,MBC,E. coli K88; [9],16 µM
same,MBC,S. aureus 29213 [6],32 µM
same,MIC,S. aureus 29213 [6],16 µM
same,MBC,S. aureus 25923,64 µM
same,MIC,S. aureus 25923,32 µM
same,"MIC, FeCl3",E. coli ATCC 25922,4 µM
same,"MIC, NH4Cl",E. coli ATCC 25922,4 µM
same,"MIC, ZnCl2",E. coli ATCC 25922,8 µM
same,"MIC, MgCl2",E. coli ATCC 25922,8 µM
same,"MIC, CaCl2",E. coli ATCC 25922,32 µM
same,"MIC, KCl",E. coli ATCC 25922,16 µM
same,"MIC, NaCl",E. coli ATCC 25922,64 µM
same,"MIC, Control",E. coli ATCC 25922,8 µM
same,MBC,S. epidermidis 12228,32 µM
same,MIC,S. epidermidis 12228,16 µM
same,MBC,S. typhimurium 7731,32 µM
same,MIC,S. typhimurium 7731,16 µM
same,MBC,S. typhimurium 14028,32 µM
same,MIC,S. typhimurium 14028,16 µM
same,MBC,B. subtilis 63501,4 µM
same,MIC,B. subtilis 63501,2 µM
same,"GM, All",[7],16.71 µM
same,MBC,S. pullorum 7913,16 µM
same,MIC,S. pullorum 7913,8 µM
same,MIC,P. aeruginosa 27853,> 64 µM
same,GM MBC,Gram-negative bacteria [8],25.40 µM
